Measured values from patent US9572347B2, “Method for inactivating a virus” (THE UNIVERSITY OF TOKYO, priority 2009, dated 2017).

Tested on: Qβ phage (NBRC 20012)
Assay: phage inactivation ability test on sample-coated glass plate (Example 1 method)
Format: cell-based
Conditions: same copper ion ratio, contact of 30 minutes, FIG. 2

| Molecule | phage inactivation effect |
| --- | --- |
| cupric sulfide [CuS, reference compound] | almost no inactivation effect |
| cuprous sulfide [Cu2S] | high phage inactivation effect |
| [Cl][Cu] [CuCl, cuprous chloride] | almost the same phage inactivation ability as that of cuprous oxide |
| [Cu+].[I-] [CuI, cuprous iodide] | high phage inactivation effect |
